From PMC10590383, “Repurposing conformational changes in ANL superfamily enzymes to rapidly generate biosensors for organic and amino acids” (Nature Communications, 2023)

Experiment: Dose–response curve of purified […]s with phenylalanine
Assay type: biochemical
Method: Fig. 3 Dose–response curves and fluorescence spectrums of […]s. a, c, e, g, i, k Dose–response curve of purified […]s with increasing concentrations of ligand in 100 mM Tris-HCl buffer (pH=7.5). The normalized ΔF/F0 value increased after ligand binding. All data shown are mean ± S.D. (n = 3 biologically independent samples). b, d, f, h, j, l The fluorescence spectra of […]s changed as the ligand concentration increased. All data shown are mean ± S.D. (n = 3 biologically independent samples). Source data are provided as a Source data file.
Fig. 4 Engineering ligand specificity of GrsA-PheA for generating […]s. a The selectivity-conferring code of Phe and Leu A domains. b–f Dose–response curve of purified […]s with increasing concentrations of ligands in 100 mM Tris-HCl buffer (pH=7.5). All data shown are means ± S.D. (n = 3 biologically independent samples). g A series of […] reactions was tested to show the […]’s specificity with 20 proteinogenic amino acids. The values on the heatmap represent the ΔF/F0 value normalized to each […]’s maximal ΔF/F0 value ((ΔF/F0)/maximal ΔF/F0). The concentrations of 20 amino acids were 100 μM. The color indicates the average value of three independent biological replicates after 15 min. All data shown are means ± S.D. (n = 3 biologically independent samples). Source data are provided as a Source data file.
The study conducted dose–response curve, substrate specificity, and fluorescent spectrum analyses in 100-mM Tris buffer (pH = 7.5), while pH stability experiments were performed in 100-mM Tris buffer at three different pH values (6.5, 7.5, and 8.5) at room temperature. […] protein at a concentration of 0.75 μM, various small molecule concentrations, 1 mM ATP, and 2.5 mM MgCl2 were used in the experiments. Fluorescent signals were detected using a Microplate Reader (Synergy H4, Bio Tek) at an excitation/emission wavelength of 460 nm/510 nm or 480 nm/510 nm. The dose-response curve was determined immediately after the addition of the analyte. The total duration of the measurement was 15 min, with readings taken at one-minute intervals. The dose-response curve was plotted using the fluorescence values obtained after achieving stability in the fluorescence signal. The dose-response curves were fitted using the logistic model LOGISTIC5 available in Origin 2021, which could provide a more adequate fit to asymmetric dose-response data[62],[63]. Excitation spectra were scanned from 300 to 540 nm with a step size of 5 nm, and the emission wavelength was set to 560 nm. Emission spectra were scanned from 470 to 700 nm with a step size of 5 nm, and the excitation wavelength was set to 450 nm. The thermal stability of […] was analyzed using the UNcle multifunctional protein stability analysis system. Measurements were performed in 20 mM MOPS buffer with 2 mM DTT at a sample concentration of 1 mg/mL. Absolute fluorescence quantum yields were measured using an absolute photoluminescence quantum yield spectrometer (FS5, Edinburgh).

## N[C@@H](Cc1ccccc1)C(=O)O [Phe]
Substrate Phe 0.001 μM
  AVE, dose-response Fig. 4 b: 0
  AVE, dose-response Fig. 4 f: 0.002395
Substrate Phe 0.005 μM
  AVE, dose-response Fig. 4 b: 0.04668
Substrate Phe 0.01 μM
  AVE, dose-response Fig. 4 b: 0.05356
  AVE, dose-response Fig. 4 f: 0.009697
  AVE, dose-response Fig. 4 d: 0.02814
Substrate Phe 0.05 μM
  AVE, dose-response Fig. 4 b: 0.1413
Substrate Phe 0.1 μM
  AVE, dose-response Fig. 4 b: 0.2634
  AVE, dose-response Fig. 4 e: -6.4763e-17
  AVE, dose-response Fig. 4 f: 0.01529
  AVE, dose-response Fig. 4 d: 0.03519
Substrate Phe 0.5 μM
  AVE, dose-response Fig. 4 b: 0.9215
  AVE, dose-response Fig. 4 c: 0
Substrate Phe 1 μM
  AVE, dose-response Fig. 4 b: 1.384
  AVE, dose-response Fig. 4 c: 0.02176
  AVE, dose-response Fig. 4 e: 0.02065
  AVE, dose-response Fig. 4 f: -0.009047
  AVE, dose-response Fig. 4 d: 0.04924
Substrate Phe 5 μM
  AVE, dose-response Fig. 4 b: 2.412
  AVE, dose-response Fig. 4 c: 0.0476
  AVE, dose-response Fig. 4 d: 0.06403
Substrate Phe 10 μM
  AVE, dose-response Fig. 4 b: 2.788
  AVE, dose-response Fig. 4 c: 0.102
  AVE, dose-response Fig. 4 e: 0.06065
  AVE, dose-response Fig. 4 f: 0.009571
  AVE, dose-response Fig. 4 d: 0.08037
Substrate Phe 25 μM
  AVE, dose-response Fig. 4 b: 3.108
Substrate Phe 50 μM
  AVE, dose-response Fig. 4 b: 3.25
  AVE, dose-response Fig. 4 c: 0.1914
  AVE, dose-response Fig. 4 f: 0.1062
  AVE, dose-response Fig. 4 d: 0.1108
Substrate Phe 100 μM
  AVE, dose-response Fig. 4 b: 3.385
  AVE, dose-response Fig. 4 c: 0.2096
  AVE, dose-response Fig. 4 e: 0.1347
  AVE, dose-response Fig. 4 f: 0.2173
  AVE, dose-response Fig. 4 d: 0.1713
Substrate Phe 2 μM
  AVE, dose-response Fig. 4 c: 0.04684
  AVE, dose-response Fig. 4 e: 0.01654
Substrate Phe 20 μM
  AVE, dose-response Fig. 4 c: 0.1609
  AVE, dose-response Fig. 4 e: 0.08275
Substrate Phe 200 μM
  AVE, dose-response Fig. 4 c: 0.2332
  AVE, dose-response Fig. 4 e: 0.2309
  AVE, dose-response Fig. 4 d: 0.2373
Substrate Phe 500 μM
  AVE, dose-response Fig. 4 c: 0.2962
  AVE, dose-response Fig. 4 e: 0.3796
  AVE, dose-response Fig. 4 f: 0.5047
  AVE, dose-response Fig. 4 d: 0.3495
Substrate Phe 750 μM
  AVE, dose-response Fig. 4 c: 0.3509
  AVE, dose-response Fig. 4 d: 0.3806
Substrate Phe 1000 μM
  AVE, dose-response Fig. 4 c: 0.2649
  AVE, dose-response Fig. 4 e: 0.4613
  AVE, dose-response Fig. 4 f: 0.643
  AVE, dose-response Fig. 4 d: 0.3842
Substrate Phe 0.2 μM
  AVE, dose-response Fig. 4 e: 0.02607
Substrate Phe 1500 μM
  AVE, dose-response Fig. 4 e: 0.4963
Substrate Phe 2000 μM
  AVE, dose-response Fig. 4 e: 0.5161
Substrate Phe 0.0001 μM
  AVE, dose-response Fig. 4 f: -0.000122
Substrate Phe 5000 μM
  AVE, dose-response Fig. 4 f: 0.6763
Substrate Phe 10000 μM
  AVE, dose-response Fig. 4 f: 0.7368
Supplementary Fig. 3 a, Phe 0.001 μM
  fluorescence response of GECFINDER, AVE of 3 repeats: 0
Supplementary Fig. 3 a, Phe 0.005 μM
  fluorescence response of GECFINDER, AVE of 3 repeats: 0.03394
Supplementary Fig. 3 a, Phe 0.01 μM
  fluorescence response of GECFINDER, AVE of 3 repeats: 0.09128
Supplementary Fig. 3 a, Phe 0.1 μM
  fluorescence response of GECFINDER, AVE of 3 repeats: 0.1211
Supplementary Fig. 3 a, Phe 1 μM
  fluorescence response of GECFINDER, AVE of 3 repeats: 0.1406
Supplementary Fig. 3 a, Phe 10 μM
  fluorescence response of GECFINDER, AVE of 3 repeats: 0.1472
Supplementary Fig. 3 a, Phe 50 μM
  fluorescence response of GECFINDER, AVE of 3 repeats: 0.1578
Supplementary Fig. 3 a, Phe 100 μM
  fluorescence response of GECFINDER, AVE of 3 repeats: 0.198
Supplementary Fig. 3 a, Phe 500 μM
  fluorescence response of GECFINDER, AVE of 3 repeats: 0.3919
Supplementary Fig. 3 a, Phe 1000 μM
  fluorescence response of GECFINDER, AVE of 3 repeats: 0.5221
Supplementary Fig. 3 a, Phe 5000 μM
  fluorescence response of GECFINDER, AVE of 3 repeats: 0.7757
Supplementary Fig. 3 a, Phe 10000 μM
  fluorescence response of GECFINDER, AVE of 3 repeats: 0.7576
Supplementary Fig. 3 b, Phe 0.001 μM
  fluorescence response of GECFINDER, AVE of 3 repeats: -4.337e-17
Supplementary Fig. 3 b, Phe 0.005 μM
  fluorescence response of GECFINDER, AVE of 3 repeats: 0.01069
Supplementary Fig. 3 b, Phe 0.01 μM
  fluorescence response of GECFINDER, AVE of 3 repeats: -0.003867
Supplementary Fig. 3 b, Phe 0.1 μM
  fluorescence response of GECFINDER, AVE of 3 repeats: 0.001408
Supplementary Fig. 3 b, Phe 1 μM
  fluorescence response of GECFINDER, AVE of 3 repeats: 0.04065
Supplementary Fig. 3 b, Phe 10 μM
  fluorescence response of GECFINDER, AVE of 3 repeats: 0.112
Supplementary Fig. 3 b, Phe 50 μM
  fluorescence response of GECFINDER, AVE of 3 repeats: 0.2916
Supplementary Fig. 3 b, Phe 100 μM
  fluorescence response of GECFINDER, AVE of 3 repeats: 0.4046
Supplementary Fig. 3 b, Phe 500 μM
  fluorescence response of GECFINDER, AVE of 3 repeats: 0.8587
Supplementary Fig. 3 b, Phe 1000 μM
  fluorescence response of GECFINDER, AVE of 3 repeats: 1.065
Supplementary Fig. 3 b, Phe 5000 μM
  fluorescence response of GECFINDER, AVE of 3 repeats: 1.452
Supplementary Fig. 3 b, Phe 10000 μM
  fluorescence response of GECFINDER, AVE of 3 repeats: 1.455
